Experimental data published in patent publication US20200253979A1, “THERAPEUTIC METHODS RELATING TO HSP90 INHIBITORS” (AI Therapeutics, Inc., priority 2017, published 2020).

Assays:
[1] = tested on: NSCLC cell lines HCC-827, H1975, PC-9 and H1781; test: CellTiter-Glo cell viability in NSCLC cell lines; assay type: cell-based; conditions: 98-50000 nM, 3 days; HCC-827, H1975, PC-9, H1781
Experimental: The NSCLC cell lines HCC-827 (EGFR L858R), H1975 (EGFR L858R/T790M) PC-9 (EGFR Del E746_A750) and H1781 (HER2 G7776insV G/C) were treated with MPC-0767 at a concentration range of 98-50000 nM for 3 days, after which time cell viability was determined using CellTiter-Glo® reagent.

[2] = tested on: FLT3 WT AML cells; test: CellTiter-Glo viability of AML cell lines and primary AML samples; assay type: cell-based; conditions: FLT3 WT cells (n=11), 72 hours; read-out: geometric mean EC50 (cell viability)
Experimental: (§1) Exponentially growing cell lines were counted and seeded into 96-well clear, flat-bottomed polystyrene microtiter plates in a final volume of 90 μL per well. For primary AML samples, cells were seeded into 384 well plates at a density of 2×10^4 cells in a final volume of 27 μL per well. To treat cell lines or primary samples 10 μL or 3 μL, respectively, of 10× concentrations of MPC-0767, were then added to the cells to give a final concentration of 10000 nM, 5000 nM, 2500 nM, 1250 nM, 625 nM, 313 nM, 156 nM, 78 nM, 39 and 20 nM. […] Cells were seeded and treated in duplicate. After incubation for three days, cell viability was determined by measuring intracellular ATP levels using the CellTiter-Glo® assay system by adding to each well either 100 μL for 96 well plates, or 30 μL for 384 well plates. Luminescence was detected using a plate reader.
(§2) The effect of drugs on cell viability was calculated by comparing the ATP levels (luminescence counts per second) of cells exposed to test compound with those of cells exposed to vehicle (DMSO) alone. The half-maximal effective concentration (EC50) for each cell line was determined using the R DRC package (R Core Team, 2017). In brief, the dose-response curves were fitted with a four-parameter logistic regression model (LL.4) according to (Eq-1) and the absolute EC50 was estimated using a confidence interval of 0.95.

[3] = tested on: FLT3-ITD AML cells; test: as above; assay type: cell-based; conditions: FLT3-ITD cells (n=8), 72 hours; read-out: geometric mean EC50 (cell viability)
Experimental: as §1, §2

[4] = tested on: MOLM-13-R-PKC412 (midostaurin-resistant) cells; test: CellTiter-Glo cell viability; assay type: cell-based, human
Source text: In the clinic, tyrosine kinase inhibitors that target FLT3 initially show positive responses, but patients inevitably relapse due to the development of drug-resistance through various mechanisms, as discussed above.

[5] = tested on: cell surface FLT3 in MV-4-11 cells; test: Cell surface FLT3 by flow cytometry; assay type: cell-based; conditions: MV-4-11, 1 μM, 24 hours
Experimental: To determine whether MPC-0767 can promote the degradation of FLT3-ITD and abolish downstream signaling, MV-4-11 and MOLM-13 cells were treated with vehicle or MPC-0767 (1 μM) for 24 hours. Cells were harvested for flow cytometry to assess cell surface FLT3 protein abundance. In addition, the measurement of a key phosphorylation site of S6 (phospho-S6) was used as a marker for oncogenic FLT3-ITD signaling (Zimmerman et al., Blood. 2013 122(22): 3607-3615). Indeed, in both MV-4-11 and MOLM-13 cells treated with MPC-0767 there was a >65% reduction in cell surface FLT3 (FIGS. 10A and 10B, respectively) and >70% reduction in phospho-S6 (FIGS. 10C and 10D, respectively).

[6] = tested on: FLT3 WT in BaF3 cells; test: Cell surface FLT3 in transfected BaF3 cells by flow cytometry; assay type: cell-based, murine; conditions: BaF3, 20-10000 nM, 24 hours
Experimental: (§3) We next sought to determine whether MPC-0767 can also promote the degradation of other FLT3 mutants that have been reported to confer resistance to FLT3 inhibitors. To do this, we again utilized the BaF3 murine cell line into which the following FLT3 mutants were transfected: FLT3 wild-type, FLT3-ITD, D835V, FLT3-ITD D835V, D835Y, FLT3-ITD D835Y, D835H, FLT3-ITD D835H, F691L, or FLT3-ITD F691L.
(§4) After puromycin selection, cells were treated with increasing concentrations of MPC-0767 (20-10000 nM) for 24 hours and then stained for cell surface expression of FLT3 (and mutants) and the median signal expression was quantified by flow cytometry.

[7] = tested on: FLT3 mutants in BaF3 cells; test: as above; assay type: cell-based, murine; conditions: BaF3, cell surface expression, 24 hours
Experimental: as §3, §4

[8] = tested on: MOLM16 cells; test: CellTiter-Glo cell viability; assay type: cell-based; conditions: MOLM16, 72 h
[9] = tested on: PD-1+ Jurkat reporter cells with THP-1 AML cells; test: Jurkat NFAT-luciferase reporter T cell activation with THP-1 cells; assay type: cell-based; conditions: THP-1 treated overnight with IFNγ and MPC-0767 1 μM or 2 uM
Source text: The addition of antibodies that block the PD-1/PD-L1 pathway stimulate an increased T cell response in vitro, in pre-clinical animal models, and in cancer patients. This can lead to tumor regressions or tumor clearance in patients. To examine MPC-0767 effects on PD-L1 and T cell activation, we used a model system in which PD-1+ Jurkat T cells express luciferase under the control of the NFAT promoter (Promega, hereafter referred to Jurkat reporter cells). When T cells are stimulated through the T cell receptor (TCR), activation of the NFAT pathway drives expression of luciferase.
We next determined whether MPC-0767 reduction of PD-L1 could increase T cell stimulation similar to anti-PD-L1 blocking antibodies. THP-1 cells were treated overnight with IFNγ in the presence or absence of MPC-0767 (1 μM or 2 uM). THP-1 cells were washed and a portion saved for flow cytometry analysis of PD-L1 expression. The remaining cells were incubated with Jurkat reporter cells and anti-CD3 (10 ng/ml) for 6 hours.

[10] = cited from earlier work

## C[C@H](N)C(=O)O[C@@H](C)C(=O)N1CCC(CCn2c(Sc3cc4c(cc3Br)OCO4)nc3c(N)ncnc32)CC1 [MPC-0767]
[1]
  EC50 (cell viability): within clinically achievable concentrations
[2]
  EC50: 1.53 µM
[3]
  EC50: 0.576 µM
[4]; Homo sapiens, MOLM-13-R-PKC412, 72 hours
  EC50: 0.727 µM
[4]; MOLM-13-R-PKC412 vs MOLM-13-LUC
  fold difference in EC50, midostaurin-resistant vs control cells: less than 1.5 fold
[5]
  reduction in cell surface FLT3: > 65%
[6]
  cell surface expression of FLT3 WT: reduced cell surface expression of FLT3 WT
[7]
  potency against FLT3 mutants compared to FLT3 WT: approximately 5 ×
[8]
  EC50: 0.367 µM
  MPC-0767 Sensitivity: Sensitive (cell lines having EC50 values below 1 μM were considered to be sensitive)
[9]
  inhibition of T cell activation: dose-dependently reduce inhibition of T cell activation
[10]
  aqueous solubility: improved aqueous solubility
